# Results published in ChEMBL document CHEMBL4270595, “Design, synthesis, antiproliferative activity, molecular docking and cell cycle analysis of some novel (morpholinosulfonyl) isatins with potential EGFR inhibitory activity” (Eur J Med Chem, 2018).
# Activity calls are given as the source filed them. The rule behind the calls is not given here.
# What was measured:
# [1] = system: HepG2; assay: Cytotoxicity against human HepG2 cells after 24 hrs by SRB assay; assay type: functional, cell-based; conditions: HepG2, 24 h
# [2] = system: HCT-116; assay: Cytotoxicity against human HCT116 cells after 24 hrs by SRB assay; assay type: functional, cell-based; conditions: HCT-116, 24 h
# [3] = Cytotoxicity against human Caco cells after 24 hrs by SRB assay; assay type: functional, cell-based
# [4] = system: MCF7; assay: Cytotoxicity against human MCF7 cells after 24 hrs by SRB assay; assay type: functional, cell-based; conditions: MCF7, 24 h
# [5] = system: WI-38; assay: Cytotoxicity against human WI38 cells after 24 hrs by SRB assay; assay type: cell-based; conditions: WI-38, 24 h
# [6] = target: T1, Epidermal growth factor receptor (Homo sapiens, UniProt P00533); assay: Inhibition of EGFR in human HepG2 cells; assay type: cell-based
# [7] = Inhibition of recombinant human FGFR preincubated for 5 mins followed by ATP addition and measured after 30 mind by HTRF assay
# [8] = system: HepG2; assay: Cell cycle arrest in human HepG2 cells assessed as accumulation of cells at G0/G1 phase at 10 uM after 24 hrs by flow cytometric analysis (reference value: 52.31%); assay type: functional
# [9] = system: HepG2; assay: Cell cycle arrest in human HepG2 cells assessed as accumulation of cells at S phase at 10 uM after 24 hrs by flow cytometric analysis (reference value: 31.31%); assay type: functional
# [10] = system: HepG2; assay: Cell cycle arrest in human HepG2 cells assessed as accumulation of cells at G2/M phase at 10 uM after 24 hrs by flow cytometric analysis (reference value: 16.38%); assay type: functional
# [11] = system: HepG2; assay: Cell cycle arrest in human HepG2 cells assessed as accumulation of cells at pre-G1 phase at 10 uM after 24 hrs by flow cytometric analysis (reference value: 2.04%); assay type: functional
# [12] = system: HepG2; assay: Induction of apoptosis in human HepG2 cells assessed as viable cells at 10 uM after 24 hrs by Annexin V-FITC/ propidium iodide staining-based flow cytometric analysis (reference value: 96.09%); assay type: functional; conditions: HepG2, 24 h, read-out: Activity
# [13] = system: HepG2; assay: Induction of apoptosis in human HepG2 cells assessed as early apoptotic cells at 10 uM after 24 hrs by Annexin V-FITC/ propidium iodide staining-based flow cytometric analysis (reference value: 0.51%); assay type: functional
# [14] = system: HepG2; assay: Induction of apoptosis in human HepG2 cells assessed as late apoptotic cells at 10 uM after 24 hrs by Annexin V-FITC/ propidium iodide staining-based flow cytometric analysis (reference value: […]); assay type: functional
# [15] = system: HepG2; assay: Induction of apoptosis in human HepG2 cells assessed as necrotic cells at 10 uM after 24 hrs by Annexin V-FITC/ propidium iodide staining-based flow cytometric analysis (reference value: 1.28%); assay type: functional
# [16] = target: Epidermal growth factor receptor (Homo sapiens, UniProt P00533, L858R); assay: Inhibition of recombinant human EGFR L858R mutant expressed in baculovirus infected insect cells preincubated for 5 mins followed by ATP addition and measured after 30 mins by HTRF assay; assay type: cell-based
# [17] = target: Epidermal growth factor receptor (Homo sapiens, UniProt P00533, T790M); assay: biochemical; assay type: cell-based, Sf21
# [18] = target: Vascular endothelial growth factor receptor (Homo sapiens, UniProt P17948+P35916+P35968); assay type: cell-based; conditions: sf9
# Description: Inhibition of GST-tagged recombinant human VEGFR (789-end) expressed in baculovirus infected Sf9 insect cells preincubated for 5 mins followed by ATP addition and measured after 30 mins by HTRF assay
# [19] = target: Receptor tyrosine-protein kinase erbB-2 (Homo sapiens, UniProt P04626); assay: Inhibition of recombinant human GST-tagged HER2 (676-end) expressed in baculovirus infected Sf9 insect cells preincubated for 5 mins followed by ATP addition and measured after 30 mins by HTRF assay
# [20] = target: T1, Epidermal growth factor receptor; assay: Inhibition of EGFR in human HepG2 cells assessed as suppression of EGFR phosphorylation after 8 hrs by Western blot analysis; assay type: cell-based
# [21] = target: T1, Epidermal growth factor receptor; assay: Inhibition of EGFR in human HepG2 cells assessed as suppression of ERK phosphorylation up to 2 uM after 8 hrs by Western blot analysis; assay type: cell-based
# T1 sequence (P00533 whole entry): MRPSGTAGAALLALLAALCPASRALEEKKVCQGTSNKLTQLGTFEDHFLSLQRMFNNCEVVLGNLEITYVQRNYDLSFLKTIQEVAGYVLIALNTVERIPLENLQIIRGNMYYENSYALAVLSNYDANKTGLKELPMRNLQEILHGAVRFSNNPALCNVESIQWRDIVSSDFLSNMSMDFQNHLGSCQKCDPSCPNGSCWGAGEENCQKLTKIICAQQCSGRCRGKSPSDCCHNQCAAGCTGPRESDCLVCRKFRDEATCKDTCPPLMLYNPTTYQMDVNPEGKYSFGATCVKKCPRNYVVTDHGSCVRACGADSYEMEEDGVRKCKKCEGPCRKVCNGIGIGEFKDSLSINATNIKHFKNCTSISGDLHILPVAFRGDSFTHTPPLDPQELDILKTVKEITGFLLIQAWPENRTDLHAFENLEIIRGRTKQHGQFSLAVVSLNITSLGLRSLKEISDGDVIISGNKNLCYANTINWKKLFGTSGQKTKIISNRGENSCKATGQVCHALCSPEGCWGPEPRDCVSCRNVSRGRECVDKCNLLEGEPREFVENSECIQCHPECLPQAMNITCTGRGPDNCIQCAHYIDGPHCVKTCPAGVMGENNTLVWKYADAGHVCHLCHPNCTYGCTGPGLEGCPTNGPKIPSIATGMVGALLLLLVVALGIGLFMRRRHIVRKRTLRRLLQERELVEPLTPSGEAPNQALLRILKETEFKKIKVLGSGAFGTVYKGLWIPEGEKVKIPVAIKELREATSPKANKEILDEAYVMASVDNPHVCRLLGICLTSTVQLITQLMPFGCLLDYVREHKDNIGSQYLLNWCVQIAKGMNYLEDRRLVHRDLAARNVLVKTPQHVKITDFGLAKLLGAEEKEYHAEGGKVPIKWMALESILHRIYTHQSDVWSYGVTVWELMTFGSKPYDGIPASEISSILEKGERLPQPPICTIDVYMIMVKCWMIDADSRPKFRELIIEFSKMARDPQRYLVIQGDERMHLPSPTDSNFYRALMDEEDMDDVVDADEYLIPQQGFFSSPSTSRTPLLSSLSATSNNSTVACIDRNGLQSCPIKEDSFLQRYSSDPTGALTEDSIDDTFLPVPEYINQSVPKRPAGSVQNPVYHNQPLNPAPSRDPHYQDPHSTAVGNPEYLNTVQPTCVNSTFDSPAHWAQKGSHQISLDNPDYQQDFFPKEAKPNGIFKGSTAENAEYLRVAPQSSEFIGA
# Sequence of Receptor tyrosine-protein kinase erbB-2 (P04626 whole entry): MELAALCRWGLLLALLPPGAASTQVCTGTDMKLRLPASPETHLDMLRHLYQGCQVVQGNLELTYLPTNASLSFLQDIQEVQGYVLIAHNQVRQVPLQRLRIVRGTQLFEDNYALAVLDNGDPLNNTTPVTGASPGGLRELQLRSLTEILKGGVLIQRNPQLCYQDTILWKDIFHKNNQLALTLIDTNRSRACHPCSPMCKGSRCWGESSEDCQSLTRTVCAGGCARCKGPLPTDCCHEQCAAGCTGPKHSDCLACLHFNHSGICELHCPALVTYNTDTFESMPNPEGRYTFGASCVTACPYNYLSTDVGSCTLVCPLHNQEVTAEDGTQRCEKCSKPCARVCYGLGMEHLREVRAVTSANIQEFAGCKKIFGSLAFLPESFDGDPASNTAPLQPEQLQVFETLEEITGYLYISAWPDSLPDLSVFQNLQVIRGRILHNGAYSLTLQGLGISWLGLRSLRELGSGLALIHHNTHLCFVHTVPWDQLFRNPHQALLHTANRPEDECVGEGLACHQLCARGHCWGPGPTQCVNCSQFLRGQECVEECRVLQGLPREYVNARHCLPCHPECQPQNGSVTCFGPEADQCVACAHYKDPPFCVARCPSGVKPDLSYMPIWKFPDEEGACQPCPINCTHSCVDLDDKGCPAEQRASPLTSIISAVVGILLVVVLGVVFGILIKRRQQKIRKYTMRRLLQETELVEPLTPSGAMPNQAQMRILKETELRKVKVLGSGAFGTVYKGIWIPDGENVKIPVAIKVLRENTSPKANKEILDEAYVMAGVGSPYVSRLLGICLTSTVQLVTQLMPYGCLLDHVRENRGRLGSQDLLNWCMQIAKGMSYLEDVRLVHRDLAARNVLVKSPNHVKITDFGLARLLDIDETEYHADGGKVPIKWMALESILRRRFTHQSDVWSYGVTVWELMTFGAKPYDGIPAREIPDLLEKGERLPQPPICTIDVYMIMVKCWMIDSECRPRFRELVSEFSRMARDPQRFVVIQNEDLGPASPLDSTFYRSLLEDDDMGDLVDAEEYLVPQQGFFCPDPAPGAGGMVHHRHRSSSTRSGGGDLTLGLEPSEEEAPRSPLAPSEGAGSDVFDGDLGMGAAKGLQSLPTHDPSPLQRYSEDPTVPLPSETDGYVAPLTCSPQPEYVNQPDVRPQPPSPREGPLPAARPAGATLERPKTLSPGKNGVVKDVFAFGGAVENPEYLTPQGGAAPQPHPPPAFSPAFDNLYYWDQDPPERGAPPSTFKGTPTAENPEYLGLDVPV
# Sequence of Epidermal growth factor receptor (Homo sapiens, UniProt P00533, T790M) (P00533 25-1210 T790M limits assumed): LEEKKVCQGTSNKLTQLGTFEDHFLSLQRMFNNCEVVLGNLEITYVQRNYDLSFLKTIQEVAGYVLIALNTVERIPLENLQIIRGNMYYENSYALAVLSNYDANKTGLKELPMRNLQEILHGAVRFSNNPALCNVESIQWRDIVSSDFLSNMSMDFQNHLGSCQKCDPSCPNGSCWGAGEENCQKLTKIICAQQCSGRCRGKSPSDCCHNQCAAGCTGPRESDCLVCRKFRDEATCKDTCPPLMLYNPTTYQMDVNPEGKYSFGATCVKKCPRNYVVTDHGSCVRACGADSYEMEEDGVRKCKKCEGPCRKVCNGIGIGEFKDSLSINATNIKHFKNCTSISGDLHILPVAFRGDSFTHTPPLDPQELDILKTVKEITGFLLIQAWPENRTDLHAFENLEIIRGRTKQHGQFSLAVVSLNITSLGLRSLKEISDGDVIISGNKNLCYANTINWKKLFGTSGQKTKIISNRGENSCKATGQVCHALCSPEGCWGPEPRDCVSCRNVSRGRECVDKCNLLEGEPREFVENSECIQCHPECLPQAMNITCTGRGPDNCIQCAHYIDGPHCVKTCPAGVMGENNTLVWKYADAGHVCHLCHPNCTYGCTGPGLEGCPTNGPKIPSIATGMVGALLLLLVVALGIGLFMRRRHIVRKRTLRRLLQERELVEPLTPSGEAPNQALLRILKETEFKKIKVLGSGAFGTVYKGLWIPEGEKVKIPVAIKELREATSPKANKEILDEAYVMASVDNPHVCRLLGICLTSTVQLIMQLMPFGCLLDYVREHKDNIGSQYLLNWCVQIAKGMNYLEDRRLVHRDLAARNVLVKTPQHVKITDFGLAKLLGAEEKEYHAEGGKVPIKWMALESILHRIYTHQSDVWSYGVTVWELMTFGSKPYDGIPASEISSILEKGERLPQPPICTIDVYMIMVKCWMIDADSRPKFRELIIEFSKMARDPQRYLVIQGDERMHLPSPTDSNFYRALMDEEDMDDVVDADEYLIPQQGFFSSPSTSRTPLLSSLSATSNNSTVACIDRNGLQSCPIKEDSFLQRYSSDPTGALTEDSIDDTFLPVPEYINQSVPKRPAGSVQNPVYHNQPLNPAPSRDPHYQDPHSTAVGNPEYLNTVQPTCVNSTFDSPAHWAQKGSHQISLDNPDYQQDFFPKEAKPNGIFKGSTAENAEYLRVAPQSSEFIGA
# Sequence of Epidermal growth factor receptor (Homo sapiens, UniProt P00533, L858R) (P00533 25-1210 L858R limits assumed): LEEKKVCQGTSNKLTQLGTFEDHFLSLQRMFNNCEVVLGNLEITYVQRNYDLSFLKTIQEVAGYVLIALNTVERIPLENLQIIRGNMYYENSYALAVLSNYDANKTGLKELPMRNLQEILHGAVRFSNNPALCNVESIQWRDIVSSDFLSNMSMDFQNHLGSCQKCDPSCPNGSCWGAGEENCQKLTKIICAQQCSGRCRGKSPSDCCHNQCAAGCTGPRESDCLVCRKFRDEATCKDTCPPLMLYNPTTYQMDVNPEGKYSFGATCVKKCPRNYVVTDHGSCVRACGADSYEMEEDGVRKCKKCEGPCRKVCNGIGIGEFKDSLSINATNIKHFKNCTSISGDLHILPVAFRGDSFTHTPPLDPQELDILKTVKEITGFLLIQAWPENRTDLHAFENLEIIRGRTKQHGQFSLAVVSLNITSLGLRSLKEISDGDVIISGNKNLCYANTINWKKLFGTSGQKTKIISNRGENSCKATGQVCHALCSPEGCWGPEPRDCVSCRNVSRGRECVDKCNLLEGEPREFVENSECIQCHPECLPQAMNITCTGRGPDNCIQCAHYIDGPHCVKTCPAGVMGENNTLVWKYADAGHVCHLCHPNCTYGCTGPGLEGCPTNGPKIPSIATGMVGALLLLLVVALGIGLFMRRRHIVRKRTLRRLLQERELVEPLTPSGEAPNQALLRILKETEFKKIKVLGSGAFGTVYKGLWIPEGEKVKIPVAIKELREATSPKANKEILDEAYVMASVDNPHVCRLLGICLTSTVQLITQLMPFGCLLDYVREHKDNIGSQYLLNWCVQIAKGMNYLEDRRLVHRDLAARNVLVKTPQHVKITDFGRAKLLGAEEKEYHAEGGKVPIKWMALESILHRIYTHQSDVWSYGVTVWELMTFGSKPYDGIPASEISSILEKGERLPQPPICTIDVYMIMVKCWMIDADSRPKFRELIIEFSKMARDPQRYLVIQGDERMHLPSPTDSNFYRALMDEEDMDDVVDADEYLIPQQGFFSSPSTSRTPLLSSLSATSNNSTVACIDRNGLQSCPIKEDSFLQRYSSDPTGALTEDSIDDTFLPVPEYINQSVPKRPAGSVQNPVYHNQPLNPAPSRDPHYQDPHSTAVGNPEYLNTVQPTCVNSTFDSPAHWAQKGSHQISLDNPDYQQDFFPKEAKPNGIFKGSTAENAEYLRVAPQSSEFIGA
structure (smiles),measurement,setting,value
N=c1oc2ccccc2cc1C(=O)N/N=C1\C(=O)Nc2ccc(S(=O)(=O)N3CCOCC3)cc21,IC50,[1],7.82 µM
same,IC50,[2],6.75 µM
same,IC50,[3],8.21 µM
same,IC50,[4],20.8 µM
same,IC50,[5],132 µM
same,IC50,[6],205 nM
C#Cc1cccc(Nc2ncnc3cc(OCCOC)c(OCCOC)cc23)c1 [ERLOTINIB],IC50,[7],30 nM
Cc1ccc(/N=C2\C(=O)Nc3ccc(S(=O)(=O)N4CCOCC4)cc32)cc1,IC50,[1],12.8 µM
same,IC50,[2],18.9 µM
same,IC50,[3],33 µM
same,IC50,[4],55.9 µM
same,IC50,[5],309 µM
O=C1Nc2ccc(S(=O)(=O)N3CCOCC3)cc2/C1=N/c1cccc(C(F)(F)F)c1,IC50,[1],14.3 µM
same,IC50,[2],15.9 µM
same,IC50,[3],21.2 µM
same,IC50,[4],41.1 µM
same,IC50,[5],226 µM
O=C1Nc2ccc(S(=O)(=O)N3CCOCC3)cc2/C1=N/c1ccc(C(=O)O)cc1,IC50,[1],23.1 µM
same,IC50,[2],23.6 µM
same,IC50,[3],25.7 µM
same,IC50,[4],26.7 µM
same,IC50,[5],313 µM
CC(=O)c1cccc(/N=C2\C(=O)Nc3ccc(S(=O)(=O)N4CCOCC4)cc32)c1,IC50,[1],28.6 µM
same,IC50,[2],29 µM
same,IC50,[3],21.4 µM
same,IC50,[4],39.2 µM
same,IC50,[5],177 µM
O=C1Nc2ccc(S(=O)(=O)N3CCOCC3)cc2/C1=N/c1ccc(Cl)cc1,IC50,[1],11.8 µM
same,IC50,[2],24.3 µM
same,IC50,[3],23.7 µM
same,IC50,[4],44.3 µM
same,IC50,[5],468 µM
COC(=O)c1ccccc1/N=C1\C(=O)Nc2ccc(S(=O)(=O)N3CCOCC3)cc21,IC50,[1],14 µM
same,IC50,[2],18.7 µM
same,IC50,[3],23.5 µM
same,IC50,[4],31.4 µM
same,IC50,[5],228 µM
O=C1Nc2ccc(S(=O)(=O)N3CCOCC3)cc2/C1=N/NC(=O)c1ccccc1,IC50,[1],18.1 µM
same,IC50,[2],28.9 µM
same,IC50,[3],36.2 µM
same,IC50,[4],414 µM
same,IC50,[5],295 µM
O=C1Nc2ccc(S(=O)(=O)N3CCOCC3)cc2/C1=N/c1ccc(/N=C2\C(=O)Nc3ccc(S(=O)(=O)N4CCOCC4)cc32)cc1,IC50,[1],8.84 µM
same,IC50,[2],7.48 µM
same,IC50,[3],9.16 µM
same,IC50,[4],10.9 µM
same,IC50,[5],203 µM
same,IC50,[6],1180 nM
O=C1Nc2ccc(S(=O)(=O)N3CCOCC3)cc2/C1=N/Nc1ccccc1,IC50,[1],15.6 µM
same,IC50,[2],10.5 µM
same,IC50,[3],20 µM
same,IC50,[4],30.3 µM
same,IC50,[5],262 µM
same,IC50,[6],46 nM
same,Activity,[8],38.92%
same,Activity,[9],14.77%
same,Activity,[10],48.31%
same,Activity,[11],16.46%
same,viability at 10 µM,[12],81.4%
same,Activity,[13],4.28%
same,Activity,[14],9.49%
same,Activity,[15],2.69%
O=S(=O)(c1ccc2[nH]c3nc4ccccc4nc3c2c1)N1CCOCC1,IC50,[1],27.2 µM
same,IC50,[2],19.2 µM
same,IC50,[3],18.9 µM
same,IC50,[4],40.8 µM
same,IC50,[5],418 µM
O=C1Nc2ccc(S(=O)(=O)N3CCOCC3)cc2/C1=N/c1ccc(Br)cc1,IC50,[1],11.9 µM
same,IC50,[2],15.3 µM
same,IC50,[3],29.4 µM
same,IC50,[4],44.8 µM
same,IC50,[5],372 µM
CC(=O)N/N=C1\C(=O)Nc2ccc(S(=O)(=O)N3CCOCC3)cc21,IC50,[1],27.5 µM
same,IC50,[2],29 µM
same,IC50,[3],18.4 µM
same,IC50,[4],56 µM
same,IC50,[5],325 µM
N#CCC(=O)N/N=C1\C(=O)Nc2ccc(S(=O)(=O)N3CCOCC3)cc21,IC50,[1],7.53 µM
same,IC50,[2],10.3 µM
same,IC50,[3],9.66 µM
same,IC50,[4],27.7 µM
same,IC50,[5],302 µM
same,IC50,[6],23 nM
same,IC50,[16],33.8 nM
same,IC50,[17],137 nM
same,IC50,[18],276 nM
same,IC50,[19],240 nM
same,IC50,[7],378 nM
same,inhibition,[20],Dose-dependent effect
same,inhibition,[21],Active
same,Activity,[8],40.31%
same,Activity,[9],15.58%
same,Activity,[10],44.11%
same,Activity,[11],14.09%
same,viability at 10 µM,[12],83.6%
same,Activity,[13],3.17%
same,Activity,[14],7.51%
same,Activity,[15],3.41%
COc1ccc(-c2c(C#N)c(N)n(/N=C3\C(=O)Nc4ccc(S(=O)(=O)N5CCOCC5)cc43)c(=O)c2C#N)cc1,IC50,[1],15 µM
same,IC50,[2],18.1 µM
same,IC50,[3],10.3 µM
same,IC50,[4],33.4 µM
same,IC50,[5],224 µM
same,IC50,[6],1930 nM
O=C1Nc2ccc(S(=O)(=O)N3CCOCC3)cc2/C1=N/c1ccc(O)cc1,IC50,[1],10.4 µM
same,IC50,[2],27.3 µM
same,IC50,[3],17.8 µM
same,IC50,[4],52.7 µM
same,IC50,[5],259 µM
same,IC50,[6],751 nM
N/N=C1\C(=O)Nc2ccc(S(=O)(=O)N3CCOCC3)cc21,IC50,[1],32.4 µM
same,IC50,[2],36.3 µM
same,IC50,[3],49.6 µM
same,IC50,[4],46.8 µM
same,IC50,[5],391 µM
O=C1Nc2ccc(S(=O)(=O)N3CCOCC3)cc2/C1=N/NS(=O)(=O)c1ccccc1,IC50,[1],23.9 µM
same,IC50,[2],13.3 µM
same,IC50,[3],16.4 µM
same,IC50,[4],25.3 µM
same,IC50,[5],302 µM
CS(=O)(=O)CCNCc1ccc(-c2ccc3ncnc(Nc4ccc(OCc5cccc(F)c5)c(Cl)c4)c3c2)o1 [LAPATINIB],IC50,[1],11.7 µM
same,IC50,[2],5.92 µM
same,IC50,[3],12.1 µM
same,IC50,[4],5.02 µM
COc1ccc(C2=C(C#N)C3=NC4=Nc5ccc(S(=O)(=O)N6CCOCC6)cc5C4=NC3C(O)=C2C#N)cc1 (stereo not drawn),IC50,[1],7.3 µM
same,IC50,[2],9.73 µM
same,IC50,[3],7.24 µM
same,IC50,[4],11.9 µM
same,IC50,[5],324 µM
same,IC50,[6],108 nM
COc1cccc2c1C(=O)c1c(O)c3c(c(O)c1C2=O)C[C@@](O)(C(=O)CO)C[C@@H]3O[C@H]1C[C@H](N)[C@H](O)[C@H](C)O1 [DOXORUBICIN],IC50,[1],7.46 µM
same,IC50,[2],8.29 µM
same,IC50,[3],5.91 µM
Cc1ccc(S(=O)(=O)N/N=C2\C(=O)Nc3ccc(S(=O)(=O)N4CCOCC4)cc32)cc1,IC50,[1],24.7 µM
same,IC50,[2],23.4 µM
same,IC50,[3],14.6 µM
same,IC50,[4],38.4 µM
same,IC50,[5],261 µM
O=C1Nc2ccc(S(=O)(=O)N3CCOCC3)cc2C1=O,IC50,[1],28.6 µM
same,IC50,[2],60 µM
same,IC50,[3],45.6 µM
same,IC50,[4],67.9 µM
same,IC50,[5],588 µM
